From patent US12600704B2, “Substituted 1,2,4-triazoles and methods of use” (STINGINN LLC, priority 2019, dated 2026)

Legend:
hTERT cells = assay: ELISA of type I IFN and cytokines in hTERT cells; type: cell-based, human
From the text: (§1) Example 2: Examining Agonists of STING. Compounds of the present invention were examined for its ability to activate the type I interferon (IFN) promoter, using a live cell assay. This assay comprised immortalized human fibroblasts (hTERT) that were stably transfected with the type I IFN promoter driving luciferase as well as the CMV promoter driving SEAP (hTERT-pIFNβ-Glu). The live cell assay was developed by the Barber lab and has been patented. The ability of the small molecules to activate the type I IFN promoter and the transcription of luciferase, but not SEAP was assessed. This is since the activation of STING, typically by CDNs, in turn activates the transcription factors NF-κB and IRF3, both of which are required to induce the transcriptional stimulation of the Type I IFN promoter, but not the CMV promoter (IRF3 and NF-κB transcription factor binding sites are not contained in the CMV promoter). Thus, activation of STING by a small molecule identified in the first screen (HTS), results in the level of luciferase increasing relative to SEAP production. […] To confirm this, Compound 28 was administered onto normal hTERT cells and the production of Type I IFN measured using ELISA (FIG. 1C). […] Thus, Compound 28 is a more robust activator of STING compared to CDNs.
Example 10: Interferon β ELISA analysis. […]

[1] = test system: type I IFN promoter (IFNβ promoter) in hTERT-pIFNβ-Glu cells; assay: Live cell assay: type I IFN promoter driving luciferase (CMV promoter driving SEAP) in hTERT-pIFNβ-Glu cells; type: cell-based, human
From the text: Compounds of the present invention were examined for their ability to activate the type I interferon (IFN) promoter, using a live cell assay. This assay comprised immortalized human fibroblasts (hTERT) that were stably transfected with the type I IFN promoter driving luciferase as well as the CMV promoter driving SEAP (hTERT-pIFNβ-Glu), as described in PCT Application No. PCT/US2019/025380, inventor Glen N. Barber, published as WO2019195285, which is herein incorporated by reference in its entirety and for all purposes. The ability of the small molecules to activate the type I IFN promoter and the transcription of luciferase, but not SEAP was assessed. […]
Solubility was determined using proprietary software, e.g., https://www.researchgate.net/publication/12055195_Internet_Software_for_the_Calculation_of_the_Lipophilicity_and_Aqueous_Solubility_of_Chemical_Compounds, last visited Dec. […]
Example 2: Examining Agonists of STING. […] The ability of the small molecules to activate the type I IFN promoter and the transcription of luciferase, but not SEAP was assessed. […] To confirm this, Compound 28 was administered onto normal hTERT cells and the production of Type I IFN measured using ELISA (FIG. 1C). […]

STING [2] = assay: Immunofluorescence of STING trafficking and IRF3/NF-κB nuclear localization in hTERT cells; type: cell-based, human
From the text: Example 2: Examining Agonists of STING. Compounds of the present invention were examined for its ability to activate the type I interferon (IFN) promoter, using a live cell assay. This assay comprised immortalized human fibroblasts (hTERT) that were stably transfected with the type I IFN promoter driving luciferase as well as the CMV promoter driving SEAP (hTERT-pIFNβ-Glu). The live cell assay was developed by the Barber lab and has been patented. The ability of the small molecules to activate the type I IFN promoter and the transcription of luciferase, but not SEAP was assessed. This is since the activation of STING, typically by CDNs, in turn activates the transcription factors NF-κB and IRF3, both of which are required to induce the transcriptional stimulation of the Type I IFN promoter, but not the CMV promoter (IRF3 and NF-κB transcription factor binding sites are not contained in the CMV promoter). […] To confirm this, Compound 28 was administered onto normal hTERT cells and the production of Type I IFN measured using ELISA (FIG. 1C). […]
Example 11: Immunofluorescence microscopy. […] Immunostaining was performed with rabbit-anti-STING polyclonal, rabbit-anti-IRF3 (Santa Cruz Biotechnology) or rabbit-anti-p65 (Cell Signaling) followed by fluorescence conjugated secondary antibodies (FITC-goat-anti-rabbit) (Invitrogen). […]

STING [3] = assay: Type I IFN production in hTERT cells lacking STING (RNAi); type: cell-based, human; conditions: STING RNAi vs control RNAi
From the text: as §1

[4] = biological target: T1, STING (amino acids 152-379, STING152-379H) (Homo sapiens, UniProt Q86WV6); assay: Thermal shift assay (TSA) binding screen with purified STING152-379H
T1 construct: made in house; host or cells: E. coli BL21 DE3 RIPL Codon Plus
From the text: Example 1: Identification of small molecule activators of STING. An assay was designed to identify small compounds that bound to STING. To achieve this, the carboxyl terminal region of STING (amino acids 152-379) fused to a histidine tag was expressed in bacteria as described in materials and methods. Soluble STING dimers were purified over a nickel affinity column and enriched further using gel filtration. Purified STING was used in a thermal shift assay (TSA) to isolate small molecules that bound to STING. A thermal shift assay quantifies the change in the thermal denaturation temperature of a protein. […] Once this was established, purified STING (5 μl; 1 μM) was mixed with 2.5 μl DMSO and compound (1% DMSO final with 2.5% SYPRO orange. The total reaction mixture was 10 μl in […] HEPES and 100 mM NaCl. SYPRO Orange binds nonspecifically to hydrophobic surfaces. When the protein unfolds, the exposed hydrophobic surfaces bind the dye, resulting in an increase in fluorescence by excluding water. The stability curve and its midpoint value (melting temperature, Tm also known as the temperature of hydrophobic exposure, Th) was obtained by gradually increasing the temperature to unfold the protein and measuring the fluorescence at each point. Curves were measured for STING only and STING+small molecule, and ΔTm was calculated. […]

[5] = test system: STING dependent TBK1 and IRF3 phosphorylation; assay: Immunoblot of TBK1/IRF3 phosphorylation in hTERT cells
Experimental: Equal amounts of proteins were resolved on sodium dodecyl sulfate (SDS)-Polyacrylamide gels and then transferred to polyvinylidene fluoride (PVDF) membranes (Millipore). After blocking with 5% Blocking Reagent, membranes were incubated with various primary antibodies (and appropriate secondary antibodies). The image was resolved using an enhanced chemiluminescence system ECL (Thermo Scientific) and detected by autoradiography (Kodak).

T1 sequence (Q86WV6 with tags, fused parts or gaps): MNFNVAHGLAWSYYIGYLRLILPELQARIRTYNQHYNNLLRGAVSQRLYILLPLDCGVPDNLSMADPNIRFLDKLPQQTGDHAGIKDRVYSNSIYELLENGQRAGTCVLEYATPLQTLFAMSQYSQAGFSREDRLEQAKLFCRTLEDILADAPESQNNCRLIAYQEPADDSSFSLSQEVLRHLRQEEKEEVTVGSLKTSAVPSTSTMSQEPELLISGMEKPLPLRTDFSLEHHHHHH

| Compound | Production of type I IFN (hTERT cells; human fibroblasts (hTERT)) | Activation of the type I IFN promoter (luciferase but not SEAP) [1] | fold induction at 50 µM ([1]; Homo sapiens, 50 μM, 0.5% DMSO, luciferase, approx. 24 h (FIGS. 2A-C) or approx. 12 h (FIGS. 3A-B), read-out: Activity (Fold changes of IFNβ promoter activity at 50 μM)) | Production of cytokines IL6, IL8 and MCP-1 (hTERT cells; hTERT cells) | STING trafficking and IRF3/NF-κB activation and nuclear localization (STING [2]) | Duration of STING activation (STING [2]; STING trafficking, nuclear localization of NF-κB and IRF3) | Type I IFN production in hTERT cells lacking STING (STING [3]) | Binding to STING [4] | Activation/phosphorylation of TBK1 (and IRF3) [5] |
| --- | --- | --- | --- | --- | --- | --- | --- | --- | --- |
| 2-((5-(4-ethylphenyl)-4H-1,2,4-triazol-3-yl)thio)-1-phenylpropan-1-one [Compound 28] | induce the production of type I IFN and other cytokines | – | – | – | – | – | – | – | – |
| CCc1ccc(-c2nnc(SC(C)C(=O)c3ccccc3)[nH]2)cc1 (stereo not drawn) [Compound 28, 2-((5-(4-ethylphenyl)-4H-1,2,4-triazol-3-yl)thio)-1-phenylpropan-1-one] | – | exhibited the ability to activate the type I IFN promoter in hTERT-pIFNβ-Glu and induce the expression of luciferase but not SEAP | 8 | the production of cytokines IL6, IL8 and MCP-1 | induces STING trafficking and IRF3/NF-κB activation and nuclear localization in hTERT cells | over 24 hours | unable to produce type I IFN | can bind to and specifically activate STING signaling | able to activate TBK-1 |
